“Also recorded” adds a separate entry of the source. Numbered stars: 1 amine (or outer) side, 2 acyl side, 3 side chain; on linkers, the order of the positions; unused ones are H or OH. Bridge positions count the residues as written; N and C are the ends. Peptide text beside a SMILES is read from it. I, II: the chains in the order shown. X4 = C[C@@H](CNC(=O)[*:1])NC(=O)NC[C@H](CCC(=O)O)NC(=O)NC[C@H](Cc1ccc(O)cc1)N[*:2]; X3 = C[C@@H](CNC(=O)[*:1])NC(=O)NC[C@H](Cc1ccc(O)cc1)NC(=O)NC[C@H](C)N[*:2]; X5 = C[C@@H](CNC(=O)N[C@@H](C)CNC(=O)[*:2])NC(=O)NC[C@H](CCC(=O)O)N[*:1]
Experiments:
[1] = tested on: normal mice (C57BL/6J); assay: Blood glucose experiment in healthy mice; type: in vivo, mouse; design: key to In vivo activity (indicator): + = active; +++: + + + = more active; conditions: for effect on blood glucose concentration: fed normal mice, 5 μg/mouse i.v., monitored 6 h; for In vivo activity (indicator): blood glucose, mice, i.v.
Protocol: In the first study, we evaluated the effect of the analogues on the blood glucose concentration of normal mice (FIG. 4). The fed mice were treated with the analogues and their blood glucose concentration was monitored before and after dosing for 6 h. […] Indeed, a decrease of blood glucose concentration is observed after 30 min and the effect is preserved for 4 h after dosing.
Blood glucose experiment in healthy mice. After the acclimation period (at least 5 days), mice (male C57BL/6J mice (Charles River laboratories) (8 weeks old, 20-25 g)) were randomized into 10 groups (n=3/group) according to their body weight. They were acutely treated via i.v. route at 10 AM (5 μg/mouse). Blood glucose was measured before dosing and at 30 min, 1, 2, 4, 6 h after dosing in fed conditions.

[2] = target: T1, mouse GLP-1 receptor endogenously expressed in βTC6 cells (Mus musculus, UniProt O35659); assay: cAMP production functional assay (HTRF), agonist activity at GLP-1R; type: cell-based; conditions: for Potency (%), percentage of potency (cAMP production) compared to GLP-1-G^2: Table 2; for Potency (%), percentage of potency compare to GLP-1-G^2: cAMP production, Table 1; for EC50: receptor-mediated cAMP production, βTC6 cells, read-out: EC50 (nM), GLP-1R potency
T1 construct: host or cells: βTC6 cells
T1 sequence (O35659 22-463): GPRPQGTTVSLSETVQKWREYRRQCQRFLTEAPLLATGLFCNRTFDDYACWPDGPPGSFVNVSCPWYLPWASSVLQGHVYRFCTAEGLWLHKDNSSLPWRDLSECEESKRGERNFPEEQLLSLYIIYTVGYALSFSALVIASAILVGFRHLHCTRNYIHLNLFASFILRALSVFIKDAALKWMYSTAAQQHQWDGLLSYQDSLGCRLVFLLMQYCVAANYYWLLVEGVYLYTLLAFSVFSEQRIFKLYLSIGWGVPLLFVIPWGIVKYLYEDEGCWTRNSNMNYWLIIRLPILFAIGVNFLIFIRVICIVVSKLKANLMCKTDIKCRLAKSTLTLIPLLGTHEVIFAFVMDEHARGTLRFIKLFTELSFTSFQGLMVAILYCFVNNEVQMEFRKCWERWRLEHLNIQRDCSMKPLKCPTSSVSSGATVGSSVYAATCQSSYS
Protocol: The agonistic activity of these hybrids were obtained by functional assays using cells expressing the […] and by measuring the receptor-mediated cAMP produced (see supporting information).
In vitro pharmacology (EC50). […] Following incubation, the cells were lysed and the fluorescence acceptor (D2-labeled cAMP) and fluorescence donor (anti-cAMP antibody labeled with europium cryptate) were added.

[3] = target: NEP 24.11 (Homo sapiens, UniProt P08473); assay: NEP 24.11 enzymatic degradation assay; conditions: pH 8
NEP 24.11, sequence (P08473 whole entry): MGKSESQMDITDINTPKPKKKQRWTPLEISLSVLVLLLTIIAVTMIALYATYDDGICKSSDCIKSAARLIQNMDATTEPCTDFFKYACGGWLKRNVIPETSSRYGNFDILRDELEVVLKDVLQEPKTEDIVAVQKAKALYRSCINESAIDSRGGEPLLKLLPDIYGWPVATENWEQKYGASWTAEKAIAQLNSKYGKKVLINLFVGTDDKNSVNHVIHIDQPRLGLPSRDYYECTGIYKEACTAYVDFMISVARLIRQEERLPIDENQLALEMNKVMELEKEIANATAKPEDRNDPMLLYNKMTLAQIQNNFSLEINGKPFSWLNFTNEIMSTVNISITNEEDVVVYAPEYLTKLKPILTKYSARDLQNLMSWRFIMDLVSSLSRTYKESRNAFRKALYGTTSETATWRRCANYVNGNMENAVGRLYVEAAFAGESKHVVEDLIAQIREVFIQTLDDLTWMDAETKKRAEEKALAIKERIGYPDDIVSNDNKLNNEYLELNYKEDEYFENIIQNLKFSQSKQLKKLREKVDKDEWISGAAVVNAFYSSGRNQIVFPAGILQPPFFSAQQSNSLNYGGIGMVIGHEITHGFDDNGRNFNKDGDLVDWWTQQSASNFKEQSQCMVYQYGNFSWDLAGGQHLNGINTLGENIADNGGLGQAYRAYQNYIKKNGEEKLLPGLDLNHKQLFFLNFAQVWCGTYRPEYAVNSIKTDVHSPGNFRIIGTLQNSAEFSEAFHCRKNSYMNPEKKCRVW
Protocol: Enzymatic and mouse plasma degradation studies.
Enzymatic degradation (NEP 24.11). Stock solutions of the oligomers were prepared at a concentration of 400 μM in a solution of 50 mM HEPES buffer, 50 mM NaCl, 0.05% Tween-80, pH 8.0. Stock solution of NEP 24.11 was prepared at a concentration of 100 μg/mL in water. Stability of oligomers to NEP 24.11 was assessed by conducting protease reaction in a 96-well plates at 20° C. […] Each compound was also incubated in the absence of the enzyme (12 μL of HEPES buffer and 38 μL of oligomer). At the indicated time (1, 2, 4, 6 and 22 hours) an aliquot of 10 μL was removed from each experimental reaction and pipetting into 100 μL of 1% TFA solution to quench the reaction, (t=0 min was determined using the reaction without enzyme). A portion of the quenched reaction solution was analyzed by HPLC. The time course of peptide degradation was determined by integrating the area of each peak in a series of HPLC traces.

Row | SMILES | effect on blood glucose concentration [1] | loss of affinity with GLP-1R compared to the native peptide [2] | Potency (%), percentage of potency (cAMP production) compared to GLP-1-G^2 [2] [%] | Potency (%), percentage of potency compare to GLP-1-G^2 [2] [%] | EC50 [2] [nM] | half-life at […] [3] [h] | In vivo activity (indicator) [1]
1 | CC[C@H](C)[C@H](NC(=O)[C@H](Cc1ccccc1)NC(=O)[C@H](CCC(=O)O)NC(=O)[C@H](CCCCN)NC(=O)[C@H](C)NC(=O)[C@H](C)NC(=O)[C@H](CCC(N)=O)NC(=O)CNC(=O)[C@H](CCC(=O)O)NC(=O)[C@H](CC(C)C)NC(=O)[C@H](Cc1ccc(O)cc1)NC(=O)NC[C@H](C)NC(=O)NC[C@H](C)NC(=O)N[C@@H](CNC(=O)[C@H](CO)NC(=O)[C@@H](NC(=O)[C@H](Cc1ccccc1)NC(=O)[C@@H](NC(=O)CNC(=O)[C@H](CCC(=O)O)NC(=O)CNC(=O)[C@@H](N)Cc1c[nH]cn1)[C@@H](C)O)[C@@H](C)O)CC(=O)O)C(=O)N[C@@H](C)C(=O)N[C@@H](Cc1c[nH]c2ccccc12)C(=O)N[C@@H](CC(C)C)C(=O)N[C@H](C(=O)N[C@@H](CCCCN)C(=O)NCC(=O)N[C@@H](CCCNC(=N)N)C(=O)NCC(N)=O)C(C)C [Compound 2, GG2[D^UαA^UA^U]^9-12] | no activity; also recorded: no effect | over a hundred fold loss | 2 | 2 | 13 | 3.6 | –
2 | CC[C@H](C)[C@H](NC(=O)[C@H](Cc1ccccc1)NC(=O)[C@H](CCC(=O)O)NC(=O)[C@H](CCCCN)NC(=O)[C@H](C)NC(=O)[C@H](C)NC(=O)[C@H](CCC(N)=O)NC(=O)CNC(=O)[C@H](CCC(=O)O)NC(=O)NC[C@H](C)NC(=O)NC[C@H](Cc1ccc(O)cc1)NC(=O)NC[C@H](C)NC(=O)[C@@H](NC(=O)[C@H](CC(=O)O)NC(=O)[C@H](CO)NC(=O)[C@@H](NC(=O)[C@H](Cc1ccccc1)NC(=O)[C@@H](NC(=O)CNC(=O)[C@H](CCC(=O)O)NC(=O)CNC(=O)[C@@H](N)Cc1c[nH]cn1)[C@@H](C)O)[C@@H](C)O)C(C)C)C(=O)N[C@@H](C)C(=O)N[C@@H](Cc1c[nH]c2ccccc12)C(=O)N[C@@H](CC(C)C)C(=O)N[C@H](C(=O)N[C@@H](CCCCN)C(=O)NCC(=O)N[C@@H](CCCNC(=N)N)C(=O)NCC(N)=O)C(C)C [Compound 5, GG2[A^UY^UA^U]^11-14] (I: EGQAAKEFIAWLVKGRG-NH2 / II: H-HGEGTFTSDV; linker I:N-II:C via X3) | efficacy but no improvement | – | 15 | 15 | – | 2.9 | +
3 | CC[C@H](C)[C@H](NC(=O)[C@H](Cc1ccccc1)NC(=O)[C@H](CCC(=O)O)NC(=O)[C@H](CCCCN)NC(=O)[C@H](C)NC(=O)[C@H](C)NC(=O)NC[C@H](C)NC(=O)NC[C@H](CCC(=O)O)NC(=O)NC[C@H](Cc1ccc(O)cc1)NC(=O)[C@H](Cc1ccc(O)cc1)NC(=O)[C@H](CO)NC(=O)[C@H](CO)NC(=O)[C@@H](NC(=O)[C@H](CC(=O)O)NC(=O)[C@H](CO)NC(=O)[C@@H](NC(=O)[C@H](Cc1ccccc1)NC(=O)[C@@H](NC(=O)CNC(=O)[C@H](CCC(=O)O)NC(=O)CNC(=O)[C@@H](N)Cc1c[nH]cn1)[C@@H](C)O)[C@@H](C)O)C(C)C)C(=O)N[C@@H](C)C(=O)N[C@@H](Cc1c[nH]c2ccccc12)C(=O)N[C@@H](CC(C)C)C(=O)N[C@H](C(=O)N[C@@H](CCCCN)C(=O)NCC(=O)N[C@@H](CCCNC(=N)N)C(=O)NCC(N)=O)C(C)C [Compound 9, GG2[Y^UE^UA^U]^14-17] (I: AAKEFIAWLVKGRG-NH2 / II: H-HGEGTFTSDVSSY; linker I:N-II:C via X4) | efficacy but no improvement | – | 135 | 135 | 0.18 | – | +
4 | CC[C@H](C)[C@H](NC(=O)[C@H](Cc1ccccc1)NC(=O)[C@H](CCC(=O)O)NC(=O)[C@H](CCCCN)NC(=O)[C@H](C)NC(=O)NC[C@H](C)NC(=O)NC[C@H](C)NC(=O)NC[C@H](CCC(=O)O)NC(=O)[C@H](CC(C)C)NC(=O)[C@H](Cc1ccc(O)cc1)NC(=O)[C@H](CO)NC(=O)[C@H](CO)NC(=O)[C@@H](NC(=O)[C@H](CC(=O)O)NC(=O)[C@H](CO)NC(=O)[C@@H](NC(=O)[C@H](Cc1ccccc1)NC(=O)[C@@H](NC(=O)CNC(=O)[C@H](CCC(=O)O)NC(=O)CNC(=O)[C@@H](N)Cc1c[nH]cn1)[C@@H](C)O)[C@@H](C)O)C(C)C)C(=O)N[C@@H](C)C(=O)N[C@@H](Cc1c[nH]c2ccccc12)C(=O)N[C@@H](CC(C)C)C(=O)N[C@H](C(=O)N[C@@H](CCCCN)C(=O)NCC(=O)N[C@@H](CCCNC(=N)N)C(=O)NCC(N)=O)C(C)C [Compound 11, GG2[E^UA^UA^U]^15-18] (I: H-HGEGTFTSDVSSYL / II: AKEFIAWLVKGRG-NH2; linker I:C-II:N via X5) | no activity; also recorded: no effect | – | 13 | 13 | – | 3.9 | –
5 | CC[C@H](C)[C@@H](CNC(=O)N[C@@H](C)CNC(=O)N[C@@H](CC(C)C)C(=O)N[C@H](C(=O)N[C@@H](CCCCN)C(=O)NCC(=O)N[C@@H](CCCNC(=N)N)C(=O)NCC(N)=O)C(C)C)NC(=O)N[C@@H](CNC(=O)[C@H](CCC(=O)O)NC(=O)[C@H](CCCCN)NC(=O)[C@H](C)NC(=O)[C@H](C)NC(=O)[C@H](CCC(N)=O)NC(=O)CNC(=O)[C@H](CCC(=O)O)NC(=O)[C@H](CC(C)C)NC(=O)[C@H](Cc1ccc(O)cc1)NC(=O)[C@H](CO)NC(=O)[C@H](CO)NC(=O)[C@@H](NC(=O)[C@H](CC(=O)O)NC(=O)[C@H](CO)NC(=O)[C@@H](NC(=O)[C@H](Cc1ccccc1)NC(=O)[C@@H](NC(=O)CNC(=O)[C@H](CCC(=O)O)NC(=O)CNC(=O)[C@@H](N)Cc1c[nH]cn1)[C@@H](C)O)[C@@H](C)O)C(C)C)Cc1ccccc1 [Compound 16, GG2[F^UαI^UA^U]^22-25] | no activity; also recorded: no effect | over a hundred fold loss | 0.4 | 0.4 | 62 | 1.8 | –
6 | CC[C@H](C)[C@H](NC(=O)[C@H](Cc1ccccc1)NC(=O)[C@H](CCC(=O)O)NC(=O)[C@H](CCCCN)NC(=O)[C@H](C)NC(=O)[C@H](C)NC(=O)[C@H](CCC(N)=O)NC(=O)CNC(=O)[C@H](CCC(=O)O)NC(=O)[C@H](CC(C)C)NC(=O)[C@H](Cc1ccc(O)cc1)NC(=O)[C@H](CO)NC(=O)[C@H](CO)NC(=O)[C@@H](NC(=O)[C@H](CC(=O)O)NC(=O)[C@H](CO)NC(=O)[C@@H](NC(=O)[C@H](Cc1ccccc1)NC(=O)[C@@H](NC(=O)CNC(=O)[C@H](CCC(=O)O)NC(=O)CNC(=O)[C@@H](N)Cc1c[nH]cn1)[C@@H](C)O)[C@@H](C)O)C(C)C)C(=O)NC(C)CNC(=O)NC(C)CNC(=O)NC(C)CNC(=O)N[C@@H](CCCCN)C(=O)NCC(=O)N[C@@H](CCCNC(=N)N)C(=O)NCC(N)=O (stereo partly drawn) [Compound 18, GG2[A^UA^UA^U]^24-27] | – | – | – | <0.01 | – | – | –
